According to patent US20220062228A1, “USE OF CARNOSOL FOR INCREASING MUSCLE PROTEIN SYNTHESIS” (Centre National De La Recherche Scientifique, priority 2018, published 2022):
Counter-ions that a name gives are not always drawn.

How the values were obtained:
human myotubes = assay: culture cell model of human skeletal muscle satellite cells: area of myotubes (troponin T immunofluorescence, Image J); format: cell-based; conditions: for hypertrophic activity on myotubes, comparison with antioxidant compounds: FIG. 8; for hypertrophic activity on myotubes, carnosol compared with carnosic acid: 1 μg/ml and 5 μg/ml, FIG. 9; for hypertrophic activity on myotubes (area of myotubes) / concentration from which hypertrophic activity is exhibited: myotubes from young human subjects; for hypertrophic activity on myotubes (area of myotubes): 5 μg/ml, FIG. 3; for concentration from which hypertrophic activity is exhibited: FIG. 4
Description: (§1) In order to assay the hypertrophic effect on muscle of compounds from vegetal extracts, the inventors have designed a culture cell model of human skeletal muscle satellite cells. The skeletal muscle satellite cells are able to proliferate and to differentiate ex vivo. When cultured in a growth factors rich medium, the skeletal muscle satellite cells proliferate in the form of myoblasts. At confluence, the myoblasts morphologically differentiate by fusing thereby producing long multinucleated cells (myotubes or myofibers) which express muscular protein. Myotubes are able to respond to hypertrophic and atrophic signals by modulating the balance between the protein synthesis (hypertrophy) or the protein degradation (atrophy) (El Haddad M. et al., Cell Mol Life Sci. 2017 May; 74(10):1923-1936).
The recovered skeletal muscle satellite cells used in the culture cell model by the inventors were recovered from a muscular biopsy of young and elderly subjects.
The satellite cells can be easily recovered from a muscle biopsy and cultured ex vivo in dishes where they proliferate as myoblasts and differentiate into myotubes. The biopsy is treated according to an experimental protocol described and validated by us for human skeletal muscle from quadriceps (Kitzmann et al., 2006; El Haddad et al 2017). The biopsy is cut into a fragment of 1 mm^3 and placed in a culture dish treated with type 1 collagen. The explants are trapped inside in a thin layer of Matrigel (BD Matrigel Matrix, BD Biosciences) in 35 mm-collagen coated Petri dishes with growth media (DMEM/F12, supplemented with 10% fetal bovine serum, 0.1% Ultroser G, 1 ng/ml basic FGF, and 10 microg/mL gentamicin). After 6 to 8 days, when cells migrate out of the explants, they are enzymatically harvested using dispase (BD Biosciences) and subcultured in growth medium. Harvested cells are purified by immunomagnetic cell sorting using magnetic activated cell sorter (MACS) microbeads (MiltenyiBiotec) coupled to an antibody against CD56. Usually in protocols of muscle culture cells, muscle differentiation is induced by growing confluent myoblasts in differentiation medium depleted of growth factors. At confluence, myoblasts start to differentiate and differentiation can be evidenced 1) morphologically (after 2 to 4 days), as the fusion of myoblasts generates long giant multinucleated cells (named myotubes) and 2) biochemically, as myotubes express proteins required for muscle contraction. Differentiation is assessed by immunofluorescence using the antibodies against Troponin T and Myogenin, two markers of muscle differentiation. The differentiation status is also confirmed by precisely measuring the expression of three differentiation markers (Myogenin, Sarcomeric Actin and Caveolin by RT-qPCR). Expression of RPLP0 is also quantified as internal control.
Briefly, myoblasts are seeded at 10^5 cells/dish onto 35 mm collagen-coated dishes and cultured in growth medium (DMEM/F12, supplemented with 10% fetal bovine serum, 0.1% Ultroser G, 1 ng/ml basic FGF, and 10 microg/ml gentamicin). Myogenic differentiation of confluent cells was induced after 3 days by changing to DMEM containing 5% FBS (differentiation medium). Cells were kept in differentiation medium for 3 to 4 days.
Then the cells are fixed and the expression of troponin T (a protein of the cytoskeleton which is exclusively expressed by myotubes) is analysed by immuno-fluorescence. Then the area of myotubes is measured using the Image J software. If the area increases the compound has a hypertrophic activity and if the area decreases the compound has an atrophic activity.
The skeletal muscle satellite cells came from young people (aged under 30).

MuRF1 = assay: western blot of MuRF1 in myotubes / skeletal muscle cells; format: cell-based, human
Description: The muscle protein degradation may be measured by assaying the level of expression of an ubiquitin ligases such as muscle RING-finger protein-1 (MuRF1).

[1] = tested on: protein synthesis in myotubes; assay: SUnSET puromycin incorporation western blot (protein synthesis) in the culture cell model; format: cell-based, human; conditions: myotubes stimulated with carnosol, puromycin 30 minutes before recovery; FIG. 13
Protocol: The synthesis of muscle protein may be measured in vitro by the method disclosed in Schmidt et al., SUnSET, a nonradioactive method to monitor protein synthesis, Nat Methods. 2009 April; 6(4):275-7. Muscle cells were treated with puromycin, 30 minutes before recovering the protein from the cells. Then, a western blot is carried out with anti-puromycin antibodies in order to show the translation rate of the mRNA in the living cells.
The muscular hypertrophic activity of carnosol may result from a global increase of the synthesis of proteins. To study this hypothesis, the culture cell model disclosed above was stimulated with carnosol. Then, 30 minutes before recovering the protein from the cells, the cells were treated with puromycin. The puromycin is incorporated in the neo-synthetized proteins. Then, a western blot was carried out with anti-puromycin antibodies in order to show the translation rate of the mRNA in the living cells (Schmidt et al., SUnSET, a nonradioactive method to monitor protein synthesis. Nat Methods. 2009; 6:275-277) (see FIG. 13).

NRF2 pathway = assay: induction of the NRF2 pathway (NRF2, HO-1) in skeletal muscle cells; format: cell-based; conditions: for NRF2 accumulation / full activation of NRF2 pathway by inducing HO-1: skeletal muscle, 6 μM
Description: The regulation of Nrf2 signaling is believed to preserve redox homeostasis and protect the structure and function of skeletal muscle. Nrf2 is a transcription factor, inactivated by Keap-1 in the cytoplasm. Upon activation, Keap1 is degraded, and NRF2 mediates intracellular antioxidant response by binding to the antioxidant response element (ARE) in the promoter of its target genes and induces the expression of a set of antioxidant enzymes, called ‘phase 2 enzymes,’ including heme oxygenase-1 (HO-1). Recently it has been shown that Nrf2 deficiency caused accelerated aging and muscle loss during aging.
Since carnosic acid and carnosol are antioxidants molecules and can activate the NRF2 pathway in several type of cells, it was studied whether carnosic acid and carnosol are capable of inducing NRF2 pathway in skeletal muscle.
In order to know whether NRF2 pathway activation is sufficient to activate hypertrophy in skeletal muscle cells. An assay with DMF (dimethyl Fumarate) has been carried out. Given DMF is a NRF2 activator, if the NRF2 pathway activation is sufficient to activate hypertrophy in skeletal muscle cells then DMF should induce myotube hypertrophy.

gastrocnemius muscle = assay: fibre areas (CSA) of gastrocnemius muscle sections, anti-dystrophin staining, Myovision; format: in vivo; conditions: adult C57 BL6 J mice, daily oral dose of 80 mg/Kg for 12 days; FIG. 6
Protocol: (§2) Hypertrophic Activity of Carnosol In Vivo To investigate whether carnosol can alter skeletal muscle physiology, adult mice (13 weeks old, C57 BL6 J) were treated for 12 days with a daily oral dose of 80 mg/Kg. […] The determination of the fibre areas (CSA) was made using the Myovision software.

MURF1 protein = assay: western blot analysis on muscle extract for MURF1 protein; format: in vivo; conditions: adult C57 BL6 J mice, daily oral dose of 80 mg/Kg for 12 days; FIG. 7
Protocol: as §2
Then, a western blot analysis on muscle extract was performed to determine the impact of a carnosol treatment on MURF1 protein.

mTOR pathway = assay: western blot of signaling pathways controlling muscle hypertrophy in myotubes; format: cell-based, human; conditions: FIG. 14
Description: Two main pathways control the regeneration of contractile proteins: • PI3K/Akt/mTOR which is the major pathway of muscle hypertrophy and • pathway of the transcription factors of FOXO family which controls the expression of the genes involved in the proteasome degradation systems and the autophagy (respectively atrogenes and genes of the autophagy).
At the molecular level, it has been established that the activation of the PI3K/Akt/mTOR pathway stimulates the protein synthesis through their anabolizing targets (mTOR, protein S6 kinase 1 (S6K) and the eIF4E-binding proteins (4E-BP) and blocks the ubiquitine E3 of the family of atrogenes MuRF1 and MAFbx mediated proteolysis pathway (FOXO) (Egerman and Glass, Signaling pathways controlling skeletal muscle mass. Crit Rev Biochem Mol Biol. 2014 January-February; 49(1):59-68).

[2] = tested on: myotube cells from elderly subject; assay: culture cell model with skeletal muscle satellite cells recovered from elderly subjects: area of myotubes; format: cell-based, human; conditions: elderly subjects 1 and 2; carnosol 2 μg/ml; FIG. 5
Description: as §1, with “74(10):1923-1936). […]” for “74(10):1923-1936).”
The satellite cells can be easily recovered from a muscle biopsy and cultured ex vivo in dishes where they proliferate as myoblasts and differentiate into myotubes. […] Differentiation is assessed by immunofluorescence using the antibodies against Troponin T and Myogenin, two markers of muscle differentiation. […] Expression of RPLP0 is also quantified as internal control. […]
Then the cells are fixed and the expression of troponin T (a protein of the cytoskeleton which is exclusively expressed by myotubes) is analysed by immuno-fluorescence. Then the area of myotubes is measured using the Image J software. […]

Q: `CC(C)(O)CC(=O)O` [β-hydroxy-β-methylbutyrate, reference compound] was tested. Which myotube hypertrophy (human myotubes; human myotubes treated 48 hours, 25 μM and 100 μM, FIG. 11) did it give?
A: Its myotube hypertrophy is “only carnosol treatment induced myotube hypertrophy”.

Q: `C[C@H]1[C@H](C)CC[C@]2(C(=O)O)CC[C@]3(C)C(=CC[C@@H]4[C@@]5(C)CC[C@H](O)C(C)(C)[C@@H]5CC[C@]43C)[C@H]12` [ursolic acid, reference compound] was tested. Which “hypertrophic activity on myotubes, comparison with antioxidant compounds” value (human myotubes; 2 μg/ml) did it give?
A: Its value is “only carnosol has a significant hypertrophic activity”.

Q: Which “hypertrophic activity on myotubes, comparison with antioxidant compounds” value (human myotubes; 50 μg/ml) does the source give for `O=C1O[C@H]([C@@H](O)CO)C(O)=C1O` [vitamin C, ascorbic acid, reference compound] here?
A: Its value is “only carnosol has a significant hypertrophic activity”.

Q: How did the “MuRF1 expression (degradation of proteins)” value (MuRF1; myotubes, western blot, FIG. 14) turn out when `CC(C)c1cc2c(c(O)c1O)[C@@]13CCCC(C)(C)[C@@H]1C[C@@H]2OC3=O` [carnosol, Carnosol] was run?
A: The value was “inhibits strongly the MuRF1 expression”.

Q: And the “synthesis of protein in muscle cells (puromycin incorporation)” value [1]?
A: Its value is “stimulates the synthesis of protein in muscle cells”.

Q: And the “hypertrophic activity on myotubes, carnosol compared with carnosic acid” value (human myotubes)?
A: Its value is “the hypertrophic activity of carnosol is significantly higher than the one of carnosic acid”.

Q: And the “hypertrophic activity on myotubes, comparison with antioxidant compounds” value (human myotubes; 2 μg/ml)?
A: The value was “only carnosol has a significant hypertrophic activity”.

Q: And the myotube hypertrophy (human myotubes; human myotubes treated 48 hours, 1 μg/ml, FIGS. 10-12)?
A: Its myotube hypertrophy is “only carnosol treatment induced myotube hypertrophy”.

Q: What about the “hypertrophic activity on myotubes (area of myotubes)” value (human myotubes; listed as commercially available carnosol) of the same compound?
A: The value was “same hypertrophic activity as the fraction C”.

Q: What about the “hypertrophic activity on myotubes (area of myotubes)” value (human myotubes; listed as fraction C) of the same compound?
A: Its value is “active compound was isolated in the fraction C”.

Q: What about the “concentration from which hypertrophic activity is exhibited” value (human myotubes; conversion of 0.5 μg/ml) of the same compound?
A: Its value is 1 to 2 µM.

Q: What about the “concentration from which hypertrophic activity is exhibited” value (human myotubes; tested 0.25-5 μg/ml) of the same compound?
A: Its value is at least 0.5 µg/mL.

Q: And the “dose from which the NRF2 pathway is induced” value (NRF2 pathway; skeletal muscle cells)?
A: Its value is at least 3 µM.

Q: And the NRF2 accumulation (NRF2 pathway)?
A: The NRF2 accumulation was “both induce NRF2 accumulation”.

Q: What about the “full activation of NRF2 pathway by inducing HO-1” value (NRF2 pathway) of the same compound?
A: The value was “only carnosol fully activates NRF2 pathway by inducing HO-1”.

Q: And the “diameter of the fibers (fibre area, CSA) of the gastrocnemius” value (gastrocnemius muscle)?
A: The value was “significantly increases the diameter of the fibers”.

Q: And the “MURF1 protein level in gastrocnemius” value (MURF1 protein)?
A: Its value is “down-regulates MURF1 protein level”.

Q: What about the “phosphorylation rate of 4EBP1 (p-4EBP1/4EPB1)” value (mTOR pathway) of the same compound?
A: The value was “increasing the phosphorylation rate”.

Q: And the “phosphorylation rate of P70 S6 kinase (p-S6K/S6K)” value (mTOR pathway)?
A: Its value is “increasing the phosphorylation rate”.

Q: What about the “phosphorylation rate of PS6 (p-S6/S6)” value (mTOR pathway) of the same compound?
A: The value was “increasing the phosphorylation rate”.

Q: What about the “hypertrophic activity on myotube cells of elderly subjects” value [2] of the same compound?
A: The value was “has also a hypertrophic activity”.

Q: With `CC(C)C[C@H](N)C(=O)O` [leucine, reference compound] as the compound, how does the myotube hypertrophy (human myotubes; human myotubes treated 48 hours, 5 mM, FIG. 10) read?
A: Its myotube hypertrophy is “only carnosol treatment induced myotube hypertrophy”.

Q: How did the “hypertrophic activity on myotubes, comparison with antioxidant compounds” value (human myotubes; 2 μg/ml) turn out when `O=C(/C=C/c1ccc(O)c(O)c1)O[C@H](Cc1ccc(O)c(O)c1)C(=O)O` [rosmarinic acid, reference compound] was run?
A: Its value is “only carnosol has a significant hypertrophic activity”.

Q: vitamin D [reference compound] was tested. Which myotube hypertrophy (human myotubes; human myotubes treated 48 hours, 10^−7M, FIG. 12) did it give?
A: The myotube hypertrophy was “Only carnosol induced myotube hypertrophy”.

Q: `COC(=O)/C=C/C(=O)OC` [DMF, dimethyl Fumarate, reference compound] was tested. Which “repression of MURF1 protein” value (MuRF1; skeletal muscle cells, DMF treatment versus carnosol treatment) did it give?
A: The value was “does not induce repression of MURF1 protein”.

Q: What about the myotube hypertrophy (human myotubes; 50 μM, FIG. 15) of the same compound?
A: Its myotube hypertrophy is “does not induce repression of MURF1 protein and myotube hypertrophy”.

Q: What about the “dose from which the NRF2 pathway is induced” value (NRF2 pathway; skeletal muscle cells) of the same compound?
A: Its value is over 20 µM.

Q: What about the “induction of the NRF2 pathway (NRF2 and HO-1)” value (NRF2 pathway; skeletal muscle cells) of the same compound?
A: The value was “induces the NRF2 pathway”.

Q: For `CC(C)c1cc2c(c(O)c1O)[C@@]1(C(=O)O)CCCC(C)(C)[C@@H]1CC2` [carnosic acid, reference compound], which “hypertrophic activity on myotubes, carnosol compared with carnosic acid” value (human myotubes) is on record?
A: Its value is “the hypertrophic activity of carnosol is significantly higher than the one of carnosic acid”.

Q: And the “hypertrophic activity on myotubes, comparison with antioxidant compounds” value (human myotubes; 2 μg/ml)?
A: Its value is “only carnosol has a significant hypertrophic activity”.

Q: What about the NRF2 accumulation (NRF2 pathway) of the same compound?
A: The NRF2 accumulation was “both induce NRF2 accumulation”.

Q: What about the “full activation of NRF2 pathway by inducing HO-1” value (NRF2 pathway) of the same compound?
A: The value was “only carnosol fully activates NRF2 pathway by inducing HO-1”.
